Data as given in the supplement of paper PMC7806825.

Test system: McpC ligand-binding domain (Salmonella Typhimurium SL1344)
Test: protein melting temperature (Tm) in presence of compound (degrees C); higher = more thermal stabilisation (possible ligand binding)
Conditions: compound stock concentration: 10-20 mM, 2 uL in 10 uL reaction

N[C@@H](CCO)C(=O)O [L-Homoserine]
protein melting temperature (Biolog plate: PM02A): 44.7 | protein melting temperature (Biolog plate: PM03B): 44.8

CC1(O)CCOC(=O)C1 (racemic) [DL-Mevalonic acid Lactone]
protein melting temperature (Biolog plate: PM05): 43.8

Nc1ccn([C@H]2C[C@H](O)[C@@H](CO)O2)c(=O)n1 [2`-Deoxycytidine]
protein melting temperature (Biolog plate: PM05): 44.3

NCCO [Ethanolamine]
protein melting temperature (Biolog plate: PM03B): 44.4

O=c1[nH]cnc2c1ncn2[C@@H]1O[C@H](CO)[C@@H](O)[C@H]1O [Inosine]
protein melting temperature (Biolog plate: PM01): 44.4 | protein melting temperature (Biolog plate: PM03B): 44.6 | protein melting temperature (Biolog plate: PM05): 44.6

CSCC[C@H](NC(=O)CN)C(=O)O [Gly-Met]
protein melting temperature (Biolog plate: PM03B): 45.2 | protein melting temperature (Biolog plate: PM04A): 43.8

CO[C@@H]1O[C@H](C(=O)O)[C@@H](O)[C@H](O)[C@H]1O [b-Methyl-D-Glucuronic acid]
protein melting temperature (Biolog plate: PM02A): 44.1

O=C(O)[C@H](O)[C@@H](O)[C@H](O)[C@H](O)CO[C@H]1O[C@H](CO)[C@H](O)[C@H](O)[C@H]1O [Melibionic acid]
protein melting temperature (Biolog plate: PM02A): 44.7

CS(=O)(=O)CC[C@H](N)C(=O)O [L-Methionine Sulfone]
protein melting temperature (Biolog plate: PM04A): 43.9

OC[C@@H](O)[C@@H](O)[C@H](O)[C@H](O)CO [D-Mannitol]
protein melting temperature (Biolog plate: PM01): 44.7

O=C1NC(=O)C(=O)C(=O)N1 [Alloxan]
protein melting temperature (Biolog plate: PM03B): 44.3

NC(=O)c1cccnc1 [Nicotinamide]
protein melting temperature (Biolog plate: PM05): 43.7

C[C@H](O)[C@@H](O)[C@@H](O)[C@H](O)C=O [L-Fucose]
protein melting temperature (Biolog plate: PM01): 44.7

CCCCN [N-Butylamine]
protein melting temperature (Biolog plate: PM03B): 45.3

NCCc1ccc(O)cc1 [Tyramine]
protein melting temperature (Biolog plate: PM01): 43.9 | protein melting temperature (Biolog plate: PM03B): 44.8

Nc1ccn([C@@H]2O[C@H](CO)[C@@H](OP(=O)(O)O)[C@H]2O)c(=O)n1 [Cytidine 3`-Monophosphate]
protein melting temperature (Biolog plate: PM04A): 45.4

O=P(O)(O)OC(CO)CO [b-Glycerol Phosphate]
protein melting temperature (Biolog plate: PM04A): 44.3

CC(C)[C@@H](N)C(=O)O [D-Valine]
protein melting temperature (Biolog plate: PM03B): 44.7

OC[C@H]1O[C@H](O[C@H]2[C@H](O)[C@@H](O)[C@@H](O[C@H]3[C@H](O)[C@@H](O)[C@@H](O)O[C@@H]3CO)O[C@@H]2CO)[C@H](O)[C@@H](O)[C@@H]1O [Maltotriose]
protein melting temperature (Biolog plate: PM01): 44

CCC(N)C(=O)O (racemic) [DL-a-Amino-N-Butyric acid]
protein melting temperature (Biolog plate: PM03B): 44.3

CCCCCC(=O)O [Caproic acid]
protein melting temperature (Biolog plate: PM02A): 43.3

O=C(O)CCCC[C@@H]1SC[C@@H]2NC(=O)N[C@@H]21 [D-Biotin]
protein melting temperature (Biolog plate: PM05): 44.5

C/C(=C/C(=O)O)C(=O)O [Citraconic acid]
protein melting temperature (Biolog plate: PM02A): 43.7

O=C(O)[C@@H]1C[C@@H](O)CN1 [Hydroxy-L-Proline]
protein melting temperature (Biolog plate: PM02A): 44.2 | protein melting temperature (Biolog plate: PM05): 43.8

OC[C@H]1O[C@@H](O[C@@H]2[C@@H](CO)OC(O)(CO)[C@H]2O)[C@H](O)[C@@H](O)[C@H]1O (mixture of isomers) [Lactulose]
protein melting temperature (Biolog plate: PM01): 44.9

O=c1ccn([C@@H]2O[C@H](CO)[C@@H](OP(=O)(O)O)[C@H]2O)c(=O)[nH]1 [Uridine 3`-Monophosphate]
protein melting temperature (Biolog plate: PM04A): 43.5

O=C(O)CCC(=O)O [Succinic acid]
protein melting temperature (Biolog plate: PM01): 44.5

O=C(O)C[C@@H](O)C(=O)O [D-Malic acid]
protein melting temperature (Biolog plate: PM01): 43.6

CC(C)(CO)[C@@H](O)C(=O)NCCC(=O)O [D-Pantothenic acid]
protein melting temperature (Biolog plate: PM05): 43.7

NCC(=O)O [Glycine]
protein melting temperature (Biolog plate: PM02A): 44.4 | protein melting temperature (Biolog plate: PM03B): 44.8 | protein melting temperature (Biolog plate: PM05): 43.9

NCCCC(=O)O [g-Amino-N-Butyric acid]
protein melting temperature (Biolog plate: PM02A): 44.4 | protein melting temperature (Biolog plate: PM03B): 44

NCCCC[C@@H](N)C(=O)O [D-Lysine]
protein melting temperature (Biolog plate: PM03B): 44.3

O=C[C@@H](O)[C@H](O[C@@H]1O[C@H](CO)[C@H](O)[C@H](O)[C@H]1O)[C@H](O)CO [3-O-b-D-Galactopyranosyl-D-Arabinose]
protein melting temperature (Biolog plate: PM02A): 44.5

NCCS(=O)O [Hypotaurine]
protein melting temperature (Biolog plate: PM04A): 44.5

N[C@H](COP(=O)(O)O)C(=O)O [O-Phospho-D-Serine]
protein melting temperature (Biolog plate: PM04A): 43.9

NCC(O)c1ccc(O)cc1 (racemic) [D,L-Octopamine]
protein melting temperature (Biolog plate: PM02A): 43.9

O=C(O)[C@]1(O)C[C@@H](O)[C@@H](O)[C@H](O)C1 [Quinic acid]
protein melting temperature (Biolog plate: PM02A): 44.2

CCCCS(=O)(=O)O [Butane Sulfonic acid]
protein melting temperature (Biolog plate: PM04A): 44.4

NC=O [Formamide]
protein melting temperature (Biolog plate: PM03B): 45.6

C[C@H](CCC(=O)NCCS(=O)(=O)O)[C@H]1CC[C@H]2[C@@H]3[C@H](O)C[C@@H]4C[C@H](O)CC[C@]4(C)[C@H]3C[C@H](O)[C@]12C [Taurocholic acid]
protein melting temperature (Biolog plate: PM04A): 44.2

N[C@@H](CSCSC[C@H](N)C(=O)O)C(=O)O [L-Djenkolic acid]
protein melting temperature (Biolog plate: PM04A): 44.6

NC(=O)[C@H]1O[C@@H](O)[C@H](O)[C@@H](O)[C@@H]1O [Glucuronamide]
protein melting temperature (Biolog plate: PM01): 44.9 | protein melting temperature (Biolog plate: PM03B): 45.7

OC[C@@H](O)[C@@H](O)[C@H](O)[C@@H](O)CO [D-Sorbitol]
protein melting temperature (Biolog plate: PM01): 45

OC[C@H]1O[C@@H]2O[C@H]3[C@H](O)[C@@H](O)[C@@H](O[C@H]4[C@H](O)[C@@H](O)[C@@H](O[C@H]5[C@H](O)[C@@H](O)[C@@H](O[C@H]6[C@H](O)[C@@H](O)[C@@H](O[C@H]7[C@H](O)[C@@H](O)[C@@H](O[C@H]8[C@H](O)[C@@H](O)[C@@H](O[C@H]1[C@H](O)[C@H]2O)O[C@@H]8CO)O[C@@H]7CO)O[C@@H]6CO)O[C@@H]5CO)O[C@@H]4CO)O[C@@H]3CO [b-Cyclodextrin]
protein melting temperature (Biolog plate: PM02A): 45.4

OC1OC[C@@H](O)[C@@H](O)[C@@H]1O (stereo partly drawn) [D-Arabinose]
protein melting temperature (Biolog plate: PM02A): 43.6

CC[C@H](C)[C@H](N)C(=O)O [L-Isoleucine]
protein melting temperature (Biolog plate: PM02A): 44.3 | protein melting temperature (Biolog plate: PM03B): 44.8 | protein melting temperature (Biolog plate: PM05): 44.7

OC[C@H](O)C(O)[C@@H](O)CO [L-Arabitol]
protein melting temperature (Biolog plate: PM02A): 43.8

Nc1nc2c(ncn2[C@@H]2O[C@H](CO)[C@@H](OP(=O)(O)O)[C@H]2O)c(=O)[nH]1 [Guanosine 3`-Monophosphate]
protein melting temperature (Biolog plate: PM04A): 43.9

NC(=O)c1ccc[n+](C2OC(COP(=O)([O-])OP(=O)(O)OCC3OC(n4cnc5c(N)ncnc54)C(O)C3O)C(O)C2O)c1 (stereo unspecified) [b-Nicotinamide Adenine Dinucleotide]
protein melting temperature (Biolog plate: PM05): 44.8

O=C(O)C(O)COP(=O)(O)O [D-3-Phospho-Glyceric acid]
protein melting temperature (Biolog plate: PM04A): 44.9

C[S+]([O-])CC[C@H](N)C(=O)O (stereo partly drawn) [L-Methionine Sulfoxide]
protein melting temperature (Biolog plate: PM04A): 43.6

CO[C@@H]1O[C@H](CO)[C@H](O)[C@H](O)[C@H]1O [b-Methyl-D-Galactoside]
protein melting temperature (Biolog plate: PM02A): 43.7

CCC(=O)C(=O)O [a-Ketobutyric acid]
protein melting temperature (Biolog plate: PM01): 43.9 | protein melting temperature (Biolog plate: PM05): 44

Nc1nc2c(ncn2[C@H]2C[C@H](O)[C@@H](CO)O2)c(=O)[nH]1 [2`-Deoxyguanosine]
protein melting temperature (Biolog plate: PM05): 43.7

NC(=O)CCCCC1CCSS1 (racemic) [DL-Lipoamide]
protein melting temperature (Biolog plate: PM04A): 44.4

NCCCCN=C(N)N [Agmatine]
protein melting temperature (Biolog plate: PM03B): 44.1

O=c1[nH]cnc2c1ncn2[C@H]1C[C@H](O)[C@@H](CO)O1 [2`-Deoxyinosine]
protein melting temperature (Biolog plate: PM05): 43.9

Cc1ncc(CO)c(CN)c1O [Pyridoxamine]
protein melting temperature (Biolog plate: PM05): 43.9
